The numbers were not newly measured in patent US6451357B1, “Method for purification of aloesin” (Unigen Pharmaceuticals, Inc., priority 2001, dated 2002), which cites them from elsewhere.

In series [1] the test system is tyrosinase. The note with it: Lineweaver Burk diagram.
The test system of series [2] is tyrosinase. The note with it: in vitro.
The test system of series [3] is de-pigmentation of the skin. The note with it: relative to hydroquinone.

Regarding `COc1cc(/C=C/C(=O)O[C@@H]2[C@@H](O)[C@H](O)[C@@H](CO)O[C@H]2c2c(O)cc(C)c3c(=O)cc(CC(C)=O)oc23)ccc1O` [2″-feruloylaloesin, 2″-O-feruloylaloesin], in series [1], the “type of tyrosinase inhibition” value was “non-competitive inhibitor”.
With `CC(=O)Cc1cc(=O)c2c(C)cc(O)c([C@@H]3O[C@H](CO)[C@@H](O)[C@H](O)[C@H]3O)c2o1` [aloesin], the “tyrosinase inhibition in words” value in series [2] is recorded as “strong inhibitor”. Moreover, the IC50 in series [2] (substrate L-DOPA, read-out: concentration capable of 50% inhibition of tyrosinase activity) was 200 µM. Besides, the “type of tyrosinase inhibition” value in series [1] is given as “competitive inhibitor”.
As to `OC[C@H]1O[C@@H](Oc2ccc(O)cc2)[C@H](O)[C@@H](O)[C@@H]1O` [arbutin], in series [3], the “quantity required to achieve a similar effect compared to the quantity of hydroquinone used” value is given as “over 100 times”.
In the case of `O=C1O[C@H]([C@@H](O)CO)C(O)=C1O` [ascorbic acid], in series [3], the “quantity required to achieve a similar effect compared to the quantity of hydroquinone used” value is recorded as 17 times.
